According to PMC7002685, “Inhibition of vascular calcification by inositol phosphates derivatized with ethylene glycol oligomers” (Nature Communications, 2020):
Values joined by “and” are separate entries in the source; they are usually repeats but may differ in a detail not shown here. Equal values may be shown once.

What was measured:
CPPs = assay: DLS of CPP hydrodynamic diameter in human serum; set-up: Dh: unit not given here
Protocol: To confirm the screening assay data, the hydrodynamic diameter of the CPPs was measured by dynamic light scattering (DLS).
Human serum studies were performed under sterile conditions at 37 °C as described previously. […] For serum background measurements, saline, human serum, and 100 mM HBS (pH 7.4 (RT)) were combined in a volume ratio of 2:8:10. […] The mixtures were incubated with continual slow mixing on a rotator (240 rotations/min, IKA KS 130 Basics Orbital Shaker) at 37 °C. After 1, 3, and 5 h of incubation, 500 µL aliquots were drawn under sterile conditions to prevent microorganism growth contamination and subjected to DLS analysis at 37 °C. For each experiment, three replicates were produced and a single measurement per sample and time point was performed.

[1] = Serum calcification propensity assay after 4.5 h incubation in enzymatically active human serum; conditions: Fig. 2e
[2] = system: THP-1-derived macrophages; assay: Macrophage viability (MTS) with CPP2 and compounds; format: cell-based, human
Protocol: (§1) Macrophage accumulation and inflammation coincide with the initial phase of calcification. To this end, VSMCs and THP-1-derived macrophages were exposed to CPP2-supplemented medium. CPP2 prepared from human serum as described previously[61] (Supplementary Figs. 6 and 7), induced a pronounced VSMC monolayer calcification after 48 h, which was decreased by (OEG2)2-IP4 in a dose-dependent fashion, and the effect became significant at 10 µM (Fig. 3e). […] Both H2O2 (proxy for oxidative stress) and tumor necrosis factor-alpha (TNF-α) (proxy for inflammatory response) levels were assayed in the VSMC culture supernatants subsequent to CPP2 treatment with and without compounds[30]. However, no increase in H2O2 nor TNF-α compared to control could be detected in either assay. For the CPP-induced VSMC calcification assay (Fig. 3e) a roughly 10-fold higher concentration of (OEG2)2-IP4 was necessary to achieve similar activity as in the CaP-induced VSMC calcification assay (Fig. 3b). […] In the CaP assay, low inhibitor concentration may be sufficient to inhibit crystal nucleation, whereas for the CPP assay higher inhibitor concentrations may be needed to achieve sufficient particle stabilization by chemisorption of inhibitor onto CPPs. Similar results have been reported for hydrogen sulfide in the context of VC[62],[64]. […] An increase in the TNFα levels in the cell culture supernatants was not observed for (OEG2)2-IP4 with (Fig. 3h) and without (Supplementary Fig. 10) combined CPP2 treatment.
(§2) THP-1 cells were plated at a density of 200,000 cells/well in a 24-well plate, differentiated as stated above, and subsequently treated with or without CPP2 (50 μg Ca/mL) in complete medium with or without test compounds (3, 10, 30, 100 μM) for 24 h at 37 °C, 5% CO2.
(§3) Cell viability was assessed using the MTS assay (CellTiter 96® Aqueous One Solution Cell Proliferation Assay, G3580; Promega, Madison, WI, USA) according to the manufacturer’s instructions. Assays using combined treatment of CPPs or CaP and test compounds were performed in 24-well plates using 20,000 cells per well and assays using test compounds only were performed in a 96-well plate format with a seeding density of 10,000 (VSMC) or 50,000 (THP-1) cells per well, respectively. For controls, cells were treated with respective complete medium only and results were calculated as % of control.

[3] = Macrophage viability (MTS) with CPP2 and compounds; format: cell-based, human; conditions: human, THP-1-derived macrophages, read-out: Macrophage viability (MTS), % of medium control
Protocol: as §1, §2, §3

[4] = VSMC viability (MTS) in CPP2-supplemented medium; format: cell-based, human; conditions: human, primary human VSMCs, read-out: VSMC viability (MTS), % of medium control
Protocol: as §1, §3

primary human VSMCs = assay: VSMC viability (MTS) in CPP2-supplemented medium; format: cell-based
Protocol: as §1, §3

[5] = Supl.Fig.4 panel b, time 1 (unit not given)
[6] = 1 µM with CPP2, replicates Fig. 3f

O=P(O)(O)O[C@H]1[C@H](OP(=O)(O)O)[C@@H](OP(=O)(O)O)[C@H](OP(=O)(O)O)[C@@H](OP(=O)(O)O)[C@H]1OP(=O)(O)O [IP6, myo-Inositol hexakisphosphate]
Dh (CPPs; [5]): 88.6 and 105.8 and 120.4
PDI (CPPs; [5]): 0.387 and 0.354 and 0.351
Dh (CPPs; Supl.Fig.4 panel b, time 3): 117.9 and 117.1 and 132.1
PDI (CPPs; Supl.Fig.4 panel b, time 3): 0.358 and 0.359
Dh (CPPs; Supl.Fig.4 panel b, time 5): 120.1 and 126.7 and 139.4
PDI (CPPs; Supl.Fig.4 panel b, time 5): 0.352 and 0.371 and 0.353
Dh (CPPs; Supl.Fig.4 panel d, time 1): 134.2 and 137.5 and 124.1
PDI (CPPs; Supl.Fig.4 panel d, time 1): 0.243 and 0.215 and 0.244
PDI (CPPs; Supl.Fig.4 panel d, time 3): 0.263 and 0.405 and 0.247
Dh (CPPs; Supl.Fig.4 panel d, time 5): 829.4 and 949 and 968.9
PDI (CPPs; Supl.Fig.4 panel d, time 5): 0.375 and 0.401 and 0.371
Dh (CPPs; Supl.Fig.4 panel e, time 1): 121.9 and 131.6 and 127.5
PDI (CPPs; Supl.Fig.4 panel e, time 1): 0.239 and 0.253 and 0.225
Dh (CPPs; Supl.Fig.4 panel e, time 3): 917.4 and 1163.2 and 967.1
PDI (CPPs; Supl.Fig.4 panel e, time 3): 0.279 and 0.365 and 0.211
Dh (CPPs; Supl.Fig.4 panel e, time 5): 1239.9 and 912.5 and 1030.4
PDI (CPPs; Supl.Fig.4 panel e, time 5): 0.335 and 0.413 and 0.307
Dh (CPPs; Supl.Fig.4 panel f, time 1): 151.1 and 134.7 and 128.6
PDI (CPPs; Supl.Fig.4 panel f, time 1): 0.231 and 0.246 and 0.242
Dh (CPPs; Supl.Fig.4 panel f, time 3): 1215.5 and 1246.8 and 894.9
Dh (CPPs; Supl.Fig.4 panel f, time 5): 938.5 and 1174.7 and 1102.1
PDI (CPPs; Supl.Fig.4 panel f, time 5): 0.341 and 0.349 and 0.237
Dh (CPPs; Supl.Fig.4 panel g, time 1): 161.6 and 144.6 and 111.2
PDI (CPPs; Supl.Fig.4 panel g, time 1): 0.205 and 0.233 and 0.237
PDI (CPPs; Supl.Fig.4 panel g, time 3): 0.21 and 0.2 and 0.256
PDI (CPPs; Supl.Fig.4 panel g, time 5): 0.256 and 0.391 and 0.263
Dh (CPPs; Supl.Fig.4 panel h, time 1): 140.9 and 155.6 and 124.7
PDI (CPPs; Supl.Fig.4 panel h, time 1): 0.242 and 0.211 and 0.261
PDI (CPPs; Supl.Fig.4 panel h, time 3): 0.224 and 0.271 and 0.403
Dh (CPPs; Supl.Fig.4 panel h, time 5): 698.6 and 1132.6 and 867.3
PDI (CPPs; Supl.Fig.4 panel h, time 5): 0.295 and 0.332 and 0.35
Dh (CPPs; Supl.Fig.4 panel i, time 1): 144.5 and 156.7 and 136.9
PDI (CPPs; Supl.Fig.4 panel i, time 1): 0.23 and 0.222 and 0.25
Dh (CPPs; Supl.Fig.4 panel i, time 3): 161.1 and 174.2 and 140.3
PDI (CPPs; Supl.Fig.4 panel i, time 3): 0.256 and 0.273 and 0.247
Dh (CPPs; Supl.Fig.4 panel i, time 5): 832.1 and 1065.7 and 818.8
PDI (CPPs; Supl.Fig.4 panel i, time 5): 0.38 and 0.379 and 0.375
ΔT50 after 4.5 h vs 0 h incubation in enzymatically active human serum ([1]; compound at c350 concentration, 37 °C, individual donors): -69 min and -77 min and -76 min and -70 min
decrease of T50 from baseline after 4.5-h incubation in enzymatically active serum ([1]; mean): 73 min
Macrophage viability (MTS), % of medium control ([2]; 3 µM + CPP2, replicates Fig. 3i, 3 µM): 102.11% and 100.63%
Macrophage viability (MTS), % of medium control ([2]; 10 µM + CPP2, 10 µM): 99.19%
Macrophage viability (MTS), % of medium control ([2]; 30 µM + CPP2, 30 µM): 96.22% and 102.8%
reduction of macrophage viability ([2]; 100 µM + CPP2): 24%
Macrophage viability (MTS), % of medium control ([2]; 100 µM + CPP2, 100 µM): 79.04% and 78.68%
viability at 24 h, 3 µM ([3]; 3 µM + CPP2, replicates Fig. 3i): 100%
viability at 24 h, 10 µM ([3]; 10 µM + CPP2): 98%
viability at 24 h, 30 µM ([3]; 30 µM + CPP2): 95.5%
viability at 24 h, 100 µM ([3]; 100 µM + CPP2): 69.2%
viability at 48 h, 1 µM [4, 6]: 100%
viability at 48 h, 3 µM ([4]; 3 µM with CPP2): 106%
viability at 48 h, 10 µM ([4]; 10 µM with CPP2): 109%
viability at 48 h, 30 µM ([4]; 30 µM with CPP2): 94.2%
VSMC viability (MTS), % of medium control (primary human VSMCs; [6]): 94.0938% and 110.013%
VSMC viability (MTS), % of medium control (primary human VSMCs; 3 µM with CPP2): 97.0633% and 115.505%
VSMC viability (MTS), % of medium control (primary human VSMCs; 10 µM with CPP2): 97.8153% and 108.364%
VSMC viability (MTS), % of medium control (primary human VSMCs; 30 µM with CPP2): 106.197% and 112.672%
VSMC viability (MTS), % of medium control (primary human VSMCs; 100 µM with CPP2): 103.122% and 102.613% and 123.477%
